Where “and” joins values, the source holds several entries; their conditions need not be identical. Equal entries are not always repeated. Inconclusive results and toxic doses are left out.

Experimental findings from PubChem BioAssay AID258 (DTP/NCI, 2004) are described below.

This experiment relates to CD2F1 mice, L1210 leukemia sc, survival T/C. Briefly: NCI In Vivo Anticancer Drug Screen. Data for tumor model L1210 Leukemia (subcutaneous) in CD2F1 (CDF1) mice. The following applies: higher = longer survival. As to the method: The antitumor activity of compounds was measured in mice bearing transplantable tumors. Survival or tumor size were measured and the results are expressed as the measurement made in the treated group (T) divided by the measurement made in the vehicle treated control group (C). The tumor model used in this assay is L1210 Leukemia (subcutaneous) in CD2F1 (CDF1) mice

Setting [1] is: endpoint: median survival time, dose: 6.25 mg/kg/injection, schedule: Q01DX009 (ip), vehicle: saline.
The mark [2] stands for this setting: endpoint: median survival time, dose: 12.5 mg/kg/injection, schedule: Q01DX009 (ip), vehicle: saline.
Where [3] appears, read: endpoint: median survival time, dose: 100.0 mg/kg/injection, schedule: Q01DX009 (ip), vehicle: saline.
The mark [4] stands for this setting: endpoint: median survival time, dose: 100.0 mg/kg/injection, schedule: Q01DX009 (sc), vehicle: saline.
[5] abbreviates: endpoint: median survival time, dose: 150.0 mg/kg/injection, schedule: Q01DX009 (ip), vehicle: saline.

In the case of `COc1ccc2[nH]c3ccc4cc[n+](CCN5CCC(C6CCN(CC[n+]7ccc8ccc9[nH]c%10ccc(OC)cc%10c9c8c7)CC6)CC5)cc4c3c2c1`, the T/C is, setting by setting: (endpoint: median survival time, dose: 6.9 mg/kg/injection, schedule: Q01DX009 (ip), vehicle: water) 104 % of control; (endpoint: median survival time, dose: 11.5 mg/kg/injection, schedule: Q01DX009 (ip), vehicle: water) 107 % of control; (endpoint: median survival time, dose: 12.5 mg/kg/injection, schedule: Q01DX009 (ip), vehicle: Klucel (hydroxypropylcellulose) (HPC)) 204 % of control and 93 % of control; (endpoint: median survival time, dose: 32.0 mg/kg/injection, schedule: Q01DX009 (ip), vehicle: water) 107 % of control; (endpoint: median survival time, dose: 50.0 mg/kg/injection, schedule: Q01DX009 (ip), vehicle: Klucel (hydroxypropylcellulose) (HPC)) 340 % of control.

In the case of `CN(C)c1nc(N(C)C)nc(N(C)C)n1`, the T/C (endpoint: median survival time, dose: 19.0 mg/kg/injection, schedule: Q01DX009 (ip), vehicle: saline with Tween-80) was 97 % of control; the T/C (endpoint: median survival time, dose: 20.0 mg/kg/injection, schedule: Q01DX009 (ip), vehicle: saline with Tween-80) is 106 % of control; the T/C (endpoint: median survival time, dose: 20.0 mg/kg/injection, schedule: Q01DX009 (sc), vehicle: saline) is 107 % of control; the T/C (endpoint: median survival time, dose: 37.5 mg/kg/injection, schedule: Q01DX009 (ip), vehicle: saline with Tween-80) was 91 % of control; the T/C (endpoint: median survival time, dose: 40.0 mg/kg/injection, schedule: Q01DX009 (ip), vehicle: saline with Tween-80) was 102 % of control; the T/C (endpoint: median survival time, dose: 40.0 mg/kg/injection, schedule: Q01DX009 (sc), vehicle: saline) was 100 % of control. For the same compound, the T/C (endpoint: median survival time, dose: 75.0 mg/kg/injection, schedule: Q01DX009 (ip), vehicle: saline with Tween-80) was 104 % of control; the T/C (endpoint: median survival time, dose: 80.0 mg/kg/injection, schedule: Q01DX009 (ip), vehicle: saline with Tween-80) is 106 % of control; the T/C (endpoint: median survival time, dose: 80.0 mg/kg/injection, schedule: Q01DX009 (sc), vehicle: saline) was 100 % of control; the T/C (endpoint: median survival time, dose: 150.0 mg/kg/injection, schedule: Q01DX009 (ip), vehicle: saline with Tween-80) was 91 % of control; the T/C (endpoint: median survival time, dose: 160.0 mg/kg/injection, schedule: Q01DX009 (ip), vehicle: saline with Tween-80) is 109 % of control and 110 % of control; the T/C (endpoint: median survival time, dose: 160.0 mg/kg/injection, schedule: Q01DX009 (sc), vehicle: saline) was 113 % of control. Besides, where the note is “endpoint: median survival time, dose: 240.0 mg/kg/injection, schedule: Q01DX009 (ip), vehicle: saline with Tween-80”, the T/C is 90 % of control.

Take `O=P1(NCCCl)OCCCN1CCCl` (stereo not given): the T/C is, setting by setting: under setting [1], 122 % of control; (endpoint: median survival time, dose: 6.25 mg/kg/injection, schedule: Q01DX009 (sc), vehicle: saline) 116 % of control; under setting [2], 151 % of control; (endpoint: median survival time, dose: 25.0 mg/kg/injection, schedule: Q01DX009 (ip), vehicle: saline) 161 % of control; (endpoint: median survival time, dose: 50.0 mg/kg/injection, schedule: Q01DX009 (ip), vehicle: saline) 169 % of control and 188 % of control; (endpoint: median survival time, dose: 66.7 mg/kg/injection, schedule: Q01DX009 (ip), vehicle: saline) 179 % of control. The T/C runs as follows: (endpoint: median survival time, dose: 66.7 mg/kg/injection, schedule: Q01DX009 (sc), vehicle: saline) 197 % of control; under setting [3], 188 % of control and 235 % of control; under setting [4], 155 % of control and 182 % of control and 232 % of control; (endpoint: median survival time, dose: 133.4 mg/kg/injection, schedule: Q01DX009 (sc), vehicle: saline) 265 % of control; under setting [5], 247 % of control; (endpoint: median survival time, dose: 150.0 mg/kg/injection, schedule: Q01DX009 (sc), vehicle: saline) 258 % of control. Moreover, the T/C was 187 % of control and 188 % of control (endpoint: median survival time, dose: 200.0 mg/kg/injection, schedule: Q01DX001 (sc), vehicle: water); 211 % of control and 217 % of control (endpoint: median survival time, dose: 300.0 mg/kg/injection, schedule: Q01DX001 (sc), vehicle: water); 176 % of control (endpoint: median survival time, dose: 300.0 mg/kg/injection, schedule: Q01DX009 (sc), vehicle: saline); 241 % of control (endpoint: median survival time, dose: 400.0 mg/kg/injection, schedule: Q01DX001 (sc), vehicle: water); 98 % of control (endpoint: median survival time, dose: 400.0 mg/kg/injection, schedule: Q01DX009 (ip), vehicle: saline); 108 % of control (endpoint: median survival time, dose: 400.0 mg/kg/injection, schedule: Q01DX009 (sc), vehicle: saline). In addition, the T/C (endpoint: median survival time, dose: 500.0 mg/kg/injection, schedule: Q01DX001 (sc), vehicle: water) was 241 % of control and 244 % of control; the T/C (endpoint: median survival time, dose: 600.0 mg/kg/injection, schedule: Q01DX001 (sc), vehicle: water) was 300 % of control and 302 % of control; the T/C (endpoint: median survival time, dose: 700.0 mg/kg/injection, schedule: Q01DX001 (sc), vehicle: water) is 264 % of control and 290 % of control.

Regarding `CN(C)/N=N/c1nc[nH]c1C(N)=O`, the T/C was 118 % of control (endpoint: mean survival time, dose: 39.0 mg/kg/injection, schedule: Q01DX009 (sc), vehicle: steriod suspending solution); 117 % of control (endpoint: mean survival time, dose: 50.0 mg/kg/injection, schedule: Q01DX017 (sc), vehicle: steriod suspending solution); 118 % of control (endpoint: mean survival time, dose: 65.0 mg/kg/injection, schedule: Q01DX009 (sc), vehicle: steriod suspending solution); 156 % of control (endpoint: mean survival time, dose: 200.0 mg/kg/injection, schedule: Q01DX017 (sc), vehicle: steriod suspending solution); 172 % of control (endpoint: mean survival time, dose: 400.0 mg/kg/injection, schedule: Q01DX017 (sc), vehicle: steriod suspending solution); 104 % of control under setting [1]. In addition, the T/C reads like this: under setting [2], 121 % of control; (endpoint: median survival time, dose: 39.0 mg/kg/injection, schedule: Q01DX009 (sc), vehicle: steriod suspending solution) 114 % of control; (endpoint: median survival time, dose: 39.0 mg/kg/injection, schedule: Q01DX Z (sc), vehicle: steriod suspending solution) 111 % of control; (endpoint: median survival time, dose: 50.0 mg/kg/injection, schedule: Q01DX017 (sc), vehicle: steriod suspending solution) 118 % of control and 122 % of control; (endpoint: median survival time, dose: 65.0 mg/kg/injection, schedule: Q01DX009 (sc), vehicle: steriod suspending solution) 117 % of control; (endpoint: median survival time, dose: 65.0 mg/kg/injection, schedule: Q01DX Z (sc), vehicle: carboxymethylcellulose (CMC)) 100 % of control. The T/C was 116 % of control (endpoint: median survival time, dose: 65.0 mg/kg/injection, schedule: Q01DX Z (sc), vehicle: steriod suspending solution); 157 % of control (endpoint: median survival time, dose: 100.0 mg/kg/injection, schedule: Q01DX009 (ip), vehicle: saline with Tween-80); 157 % of control under setting [3]; 151 % of control under setting [4]; 100 % of control (endpoint: median survival time, dose: 108.0 mg/kg/injection, schedule: Q01DX Z (sc), vehicle: carboxymethylcellulose (CMC)); 178 % of control under setting [5]. Further, the T/C runs as follows: (endpoint: median survival time, dose: 180.0 mg/kg/injection, schedule: Q01DX Z (sc), vehicle: carboxymethylcellulose (CMC)) 100 % of control; (endpoint: median survival time, dose: 200.0 mg/kg/injection, schedule: Q01DX009 (ip), vehicle: saline with Tween-80) 160 % of control; (endpoint: median survival time, dose: 200.0 mg/kg/injection, schedule: Q01DX009 (ip), vehicle: saline) 166 % of control; (endpoint: median survival time, dose: 200.0 mg/kg/injection, schedule: Q01DX017 (sc), vehicle: steriod suspending solution) 152 % of control and 155 % of control; (endpoint: median survival time, dose: 225.0 mg/kg/injection, schedule: Q01DX009 (sc), vehicle: saline) 186 % of control; (endpoint: median survival time, dose: 300.0 mg/kg/injection, schedule: Q01DX009 (ip), vehicle: saline) 172 % of control. Besides, the T/C is 153 % of control (endpoint: median survival time, dose: 300.0 mg/kg/injection, schedule: Q01DX009 (sc), vehicle: steriod suspending solution); 100 % of control (endpoint: median survival time, dose: 300.0 mg/kg/injection, schedule: Q01DX Z (sc), vehicle: carboxymethylcellulose (CMC)); 155 % of control (endpoint: median survival time, dose: 300.0 mg/kg/injection, schedule: Q01DX Z (sc), vehicle: steriod suspending solution); 175 % of control and 177 % of control (endpoint: median survival time, dose: 400.0 mg/kg/injection, schedule: Q01DX017 (sc), vehicle: steriod suspending solution); 111 % of control and 100 % of control (endpoint: median survival time, dose: 500.0 mg/kg/injection, schedule: Q01DX Z (sc), vehicle: carboxymethylcellulose (CMC)); 160 % of control (endpoint: median survival time, dose: 600.0 mg/kg/injection, schedule: Q01DX009 (sc), vehicle: saline + alcohol). Further, the T/C reads like this: (endpoint: median survival time, dose: 600.0 mg/kg/injection, schedule: Q01DX009 (sc), vehicle: saline) 118 % of control; (endpoint: median survival time, dose: 800.0 mg/kg/injection, schedule: Q01DX009 (ip), vehicle: saline with Tween-80) 96 % of control; (endpoint: median survival time, dose: 833.0 mg/kg/injection, schedule: Q01DX Z (sc), vehicle: carboxymethylcellulose (CMC)) 150 % of control; (endpoint: median survival time, dose: 900.0 mg/kg/injection, schedule: Q01DX009 (sc), vehicle: saline + alcohol) 155 % of control; (endpoint: median survival time, dose: 1200.0 mg/kg/injection, schedule: Q01DX009 (sc), vehicle: saline) 90 % of control; (endpoint: median survival time, dose: 1388.0 mg/kg/injection, schedule: Q01DX Z (sc), vehicle: carboxymethylcellulose (CMC)) 155 % of control.
